US10391166B2, “Short oligonucleotides as vaccine adjuvants and therapeutic agents” (priority 2013, dated 2019)
“Also recorded” adds a separate entry of the source.

Legend:
[1] = test system: IRF3-luciferase reporter gene; assay: IRF3-luciferase reporter induction in HLE A549 cells (primary assay for NOD2 activation); assay type: cell-based, human; settings: 12 h incubation
Experimental: The evaluation of SMNH compounds for NOD2 activation was conducted by primary, secondary, and tertiary assays. In the primary assays, SMNH compounds were tested for the induction of IRF3 expression in HLE A549 cells, which are known to endogenously express NOD2. […] SB 44, a mixture of two isomers Rp and Sp, is a prodrug of SB 40. SB 1B—the Rp isomer of SB 44 and is shown as SB 44-1 in the FIGS. 1-2.
IRF3-luciferase transfected cells were incubated with either DMSO only (UT) or SMNH compounds (μM). Following 12 h incubation, luciferase activity was measured using Dual-Luciferase Reporter Assay System (Promega) according to the manufacturer's protocol. Transfection efficiency was normalized by measuring the expression of renilla Luciferase. Luciferase units (i.e., fold induction) were measured by standard methodology (mean±standard deviation; 3 independent experiments). The results are depicted in FIG. 1.

NOD2 = target: T1, NOD2 (Homo sapiens, UniProt Q9HC29); assay: IRF3-luciferase assay in HEK 293 cells transfected with NOD2; assay type: cell-based; settings: HEK 293 transfected with NOD2, pcDNA and IRF3-luciferase; 1 μM; 12 h
T1 construct: expressed in transfected cells; host or cells: HEK 293
Experimental: HEK 293 cells were transfected with NOD2, pcDNA and IRF3-luciferase. The cells were then incubated with ssRNA (0.5 mg/ml) or SMNH compounds (1 μM). Following 12 h incubation, Luciferase activity was measured as described previously. The luciferase assay results are presented as mean±S.D. from three independent experiments (detailed materials and methods employed in these assays, see: ref (28). The results are depicted in FIG. 2.

[2] = test system: C57Bl/6 mouse bone marrow derived macrophages; assay type: cell-based
MHC-II = assay type: cell-based, mouse
M. tuberculosis [3] = test system: M. tuberculosis; design: species or system C57Bl/6 mice; settings: mouse, in vivo
[4] = test system: peripheral blood mononuclear cells (PBMCs); assay: Multiplex assay for 28 cytokines in PBMCs; assay type: cell-based, human; settings: up to 50 μM
PBMCs = assay type: cell-based
RIG-I and NOD2 [5] = assay type: cell-based; settings: receptor-deficient cells, exogenous RIG-I and NOD2
[6] = human liver S9 fractions
Experimental: SB 44 (10 μM) was incubated with a mix containing S9 fraction (pooled from human) (1 mg/ml), NADPH (1.3 mM) UDPGA (5 mM), Alamethicin (10 μg/ml) in 1 ml of 1×PBS buffer. S-(5′-adenosyl)-L-methionine iodide (0.1 mM), adenosine 3′-phosphate 5′-phosphosulfate lithium salt hydrate (0.1 mM) and acetyl CoA (1 mM). The metabolite samples were evaluated by HPLC and LC/MS analysis.

[7] = test system: MDBK, Vero, and HFF cell lines; assay: in vitro; settings: cell line not specified (table footnote)
Experimental: (§1) SB 44 was subjected to cytotoxicity evaluation against a panel of cell lines including Madin-Darby bovine kidney (MDBK), Vero, and HFF (human foreskin fibroblasts) to determine their CC50. Standard Microculture Tetrazolium Assay (MTT) assays were performed in 96-well plates using MDBK, Vero, and HFF cell lines (obtained from American Type Cell Collection). Controls included the nucleoside analogs 3TC, AZT, and ddC, as well as media without drugs. SDS was used as a positive cytotoxic control. All prodrugs were tested in triplicate at concentrations of 100, 300, and 1000 μM. Following a 24-hour incubation of cells with the test substance, the MTT assay was carried out.
(§2) Standard MTT assays were performed in 96-well plates using the Promega CellTiter96 Non-radioactive Cell Proliferation Assay Kit in conjunction with a 96-well Plate Reader (ThermoMax, Molecular devices), and MDBK, Vero, and HFF cell lines (obtained from ATCC). Several controls were employed including the nucleoside analogs 3TC, AZT, and ddC, as well as, media without drugs. SDS was used as a positive cytotoxic control. The compounds were tested in triplicate at concentrations of 100, 300, and 1000 μM. Following a 24-hour incubation of cells with the test substance, the MTT assay was carried out.

[8] = Experimental: The objectives of this study were to determine potential toxic effects of SB 44 following daily oral dose administration for 14 days, and to evaluate the genotoxicity of SB 44 as determined by micronucleus evaluation. Male and female Sprague-Dawley rats were administered SB 44 daily at doses of 50, 200 and 500 mg/kg/day for 14 consecutive days. […] Micronucleus evaluations were performed to determine the potential genotoxicity of SB 44. Necropsies were performed on Day 15 for rats in the main study group and on Day 28 for rats in the recovery group.
in vitro = settings: bovine (MDBK), African green monkey (Vero), human (HFF)
Experimental: as §1, §2

interferon-β (IFN-β) = assay: IFN-β production from human lung epithelial A549 cells; assay type: cell-based
RIG-I and NOD2 [9] = assay: Induction of responder genes RIG-I and NOD2; assay type: cell-based
IL-1β = assay: Mature IL-1β ELISA in mouse bone marrow derived primary macrophages; assay type: cell-based; settings: alone or with MDP or BCG, caspase blockade with ZVAD-fmk
Experimental: C57Bl/6 mouse bone marrow derived primary macrophages were treated with SB 1A or SB 1B alone, MDP alone or in combination as indicated for 4 hrs. BCG was used for infection for 4 hrs and supernatants collected 18 hr later titrated for mature IL1β using ELISA. Macrophages were first treated with ZVAD-fmk (2 hrs) for caspase blockade followed by activation with SB 1A and SB 1B (4 hrs) and BCG infection (4 hrs). Cytokine was measured 18 hrs later.

M. tuberculosis [10] = test system: M. tuberculosis; design: species or system C57Bl/6 mice; settings: mouse, in vivo; remark: listed apart in the source

T1 sequence (Q9HC29 whole entry, species assumed): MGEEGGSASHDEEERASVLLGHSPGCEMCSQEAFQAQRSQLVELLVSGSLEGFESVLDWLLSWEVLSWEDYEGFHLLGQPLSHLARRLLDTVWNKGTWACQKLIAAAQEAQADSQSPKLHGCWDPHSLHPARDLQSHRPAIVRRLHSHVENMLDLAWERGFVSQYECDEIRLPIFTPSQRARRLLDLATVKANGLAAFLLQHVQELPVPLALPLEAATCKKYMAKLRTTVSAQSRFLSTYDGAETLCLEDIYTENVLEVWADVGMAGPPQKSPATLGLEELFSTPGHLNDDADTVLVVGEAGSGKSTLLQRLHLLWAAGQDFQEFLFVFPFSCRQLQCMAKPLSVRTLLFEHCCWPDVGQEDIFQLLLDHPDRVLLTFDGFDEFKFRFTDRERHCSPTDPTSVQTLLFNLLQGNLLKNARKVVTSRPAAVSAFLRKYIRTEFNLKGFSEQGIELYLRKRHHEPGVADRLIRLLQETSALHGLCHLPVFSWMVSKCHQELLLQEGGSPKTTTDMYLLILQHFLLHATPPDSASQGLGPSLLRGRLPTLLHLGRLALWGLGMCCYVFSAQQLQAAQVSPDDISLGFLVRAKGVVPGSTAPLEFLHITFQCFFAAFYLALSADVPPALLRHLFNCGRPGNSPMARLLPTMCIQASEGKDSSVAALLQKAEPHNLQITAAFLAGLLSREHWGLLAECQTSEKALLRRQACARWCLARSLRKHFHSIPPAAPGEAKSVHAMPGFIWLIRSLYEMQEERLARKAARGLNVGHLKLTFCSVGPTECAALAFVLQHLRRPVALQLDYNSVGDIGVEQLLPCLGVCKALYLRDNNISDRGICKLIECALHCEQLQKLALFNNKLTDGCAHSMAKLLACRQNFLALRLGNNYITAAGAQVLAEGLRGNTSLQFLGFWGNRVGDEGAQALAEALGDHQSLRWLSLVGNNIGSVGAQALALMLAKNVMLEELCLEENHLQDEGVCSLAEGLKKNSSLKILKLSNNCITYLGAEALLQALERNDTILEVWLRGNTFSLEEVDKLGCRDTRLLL

COC1C(OP(=O)(S)OCC2OC(n3cnc4c(N)ncnc43)CC2O)C(CO)OC1n1ccc(=O)[nH]c1=O (mixture of isomers) [SB 40]
IRF3 activation (IRF3-luciferase) [1]: induced IRF3 activation | IRF3 activation mediated via NOD2 (NOD2): mediated via NOD2 activation | antigen presentation (Antigen-85B) in macrophages [2]: enhance antigen presentation in vitro | surface expression of MHC-II (MHC-II): increase MHC-II in MΦs | anti-TB T cell function of mice (M. tuberculosis [3]): dramatic increase in anti-TB T cell function of mice | cytokine induction in human PBMC cultures [4]: did not cause cytokine induction | IFN production in the presence of BCG (PBMCs): modest augmentation of IFN production | enhancement of ISG-56 expression over that induced by PolyI-PolyC (RIG-I and NOD2 [5]): 2 fold | phase II conjugative reactions [6]: no apparent evidence of any phase II conjugative reactions | CC50 [7]: > 1 mM | systemic exposure females versus males, largest difference ([8]; Day 14, 500 mg/kg dose groups): about twofold | Day 14 Cmax and AUClast values versus Day 1 ([8]; SB 40 in plasma, each dose of SB 44): higher than those on Day 1 | dose relationship for Cmax and AUClast ([8]; SB 40 in plasma, male and female rats, Days 1 and 14): nonlinear dose relationship

COC1[C@@H](OP(=O)(OC[C@H]2O[C@@H](n3cnc4c(N)ncnc43)C[C@H]2O)SCOC(=O)OC(C)C)[C@@H](CO)O[C@H]1n1ccc(=O)[nH]c1=O (stereo partly drawn) [Compound 3]
CC50 at 24 h (in vitro): > 1 mM

COC1C(OP(=O)(OCC2OC(n3cnc4c(N)ncnc43)CC2O)SCOC(=O)OC(C)C)C(CO)OC1n1ccc(=O)[nH]c1=O (stereo not drawn) [SB 1B]
IRF3 activation (IRF3-luciferase) [1]: induced IRF3 activation | IRF3 activation mediated via NOD2 (NOD2): mediated via NOD2 activation | production of IFN-β (interferon-β (IFN-β)): results in production of IFN-β | induction of responder genes RIG-I and NOD2 (RIG-I and NOD2 [9]): induction of responder genes RIG-I and NOD2 | antigen presentation (Antigen-85B) in macrophages [2]: enhance antigen presentation in vitro; also recorded: retain full activity | surface expression of MHC-II (MHC-II): increase MHC-II in MΦs | Mtb counts of lungs (M. tuberculosis [3]): reducing Mtb counts of lungs better than either BCG or MDP+BCG | Mtb counts of spleens (M. tuberculosis [3]): better than BCG vaccine in reducing Mtb counts of spleens | adjuvant efficacy with BCG vaccine against tuberculosis (M. tuberculosis [3]): more efficacious as an adjuvant than SB 44; also recorded: better than muramyl dipeptide (MDP) as adjuvants | anti-TB T cell function of mice (M. tuberculosis [3]): dramatic increase in anti-TB T cell function of mice | numbers of multi-functional T cells (M. tuberculosis [3]): enhances the numbers of multi-functional T cells compared to BCG vaccine | tetramer specific CD8 T cells (M. tuberculosis [3]): comparable levels of tetramer specific CD8 T cells | induction of mature IL-1β (IL-1β): induce IL-1β only in combination with either MDP or intact BCG bacilli | antigen specific CD8 / memory T cells in lungs of re-challenged mice (M. tuberculosis [10]): boost the magnitude of antigen specific memory T cells; also recorded: induces a robust expansion of antigen specific CD8 T cells | protection against re-challenge of tuberculosis (M. tuberculosis [10]): protects twice as better than BCG; also recorded: induce protection against re-challenge of tuberculosis in mice | recall response against re-challenge with tuberculosis (M. tuberculosis [10]): retain the ability to mount a better recall response
